Activity calls are given as the source filed them. Where only a bound is given, the exact number is not on record here.

In test [1] the target is T1, Delta-type opioid receptor (Homo sapiens, UniProt P41143). Description: delta opioid receptor blockers – image-based, SAR follow-up (AID 2357). Type of test: functional.
Test [2] has as its target T1, Delta-type opioid receptor. In words: DOR agonists, SAR follow-up, image-based (AID 2370). Type of test: functional.
Test [3] concerns the target T2, Kappa-type opioid receptor (Homo sapiens, UniProt P41145). In words: kappa opioid receptor activation potency – imaging, image-based, SAR follow-up (AID 2359). In kind it is functional.
In test [4] the target is T2, Kappa-type opioid receptor. Description: kappa opioid receptor blockers, image-based, SAR follow-up (AID 2348). Type of test: functional.
The target of test [5] is T3, Mu-type opioid receptor (Homo sapiens, UniProt P35372). Description: mu opioid receptor blockers – image-based, SAR follow-up (AID 2420).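 Further: compounds added before stimulation of receptor with agonist DAMGO.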 Type of test: functional.
Test [6] addresses T3, Mu-type opioid receptor. Description: mu opioid receptor activators, image-based, SAR follow-up (AID 2352). In kind it is functional.
Test [7] deals with T2, Kappa-type opioid receptor. Description: kappa opioid receptor blockers, cell-based, luminescence, beta-arrestin, SAR follow-up (AID 2285). In kind it is functional.
Test [8] addresses T4, Sentrin-specific protease 8 (Homo sapiens, UniProt Q96LD8).
T4 sequence (Q96LD8 whole entry): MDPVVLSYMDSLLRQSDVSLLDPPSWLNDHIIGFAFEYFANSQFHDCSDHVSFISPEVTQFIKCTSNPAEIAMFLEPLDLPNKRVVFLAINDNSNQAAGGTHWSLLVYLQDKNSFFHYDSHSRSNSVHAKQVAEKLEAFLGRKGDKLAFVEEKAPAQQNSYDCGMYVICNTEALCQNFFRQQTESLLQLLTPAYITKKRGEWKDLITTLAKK
Type of test: functional.

Test [9] addresses T5, Sentrin-specific protease 6 (Homo sapiens, UniProt Q9GZR1).
T5 sequence (Q9GZR1 whole entry): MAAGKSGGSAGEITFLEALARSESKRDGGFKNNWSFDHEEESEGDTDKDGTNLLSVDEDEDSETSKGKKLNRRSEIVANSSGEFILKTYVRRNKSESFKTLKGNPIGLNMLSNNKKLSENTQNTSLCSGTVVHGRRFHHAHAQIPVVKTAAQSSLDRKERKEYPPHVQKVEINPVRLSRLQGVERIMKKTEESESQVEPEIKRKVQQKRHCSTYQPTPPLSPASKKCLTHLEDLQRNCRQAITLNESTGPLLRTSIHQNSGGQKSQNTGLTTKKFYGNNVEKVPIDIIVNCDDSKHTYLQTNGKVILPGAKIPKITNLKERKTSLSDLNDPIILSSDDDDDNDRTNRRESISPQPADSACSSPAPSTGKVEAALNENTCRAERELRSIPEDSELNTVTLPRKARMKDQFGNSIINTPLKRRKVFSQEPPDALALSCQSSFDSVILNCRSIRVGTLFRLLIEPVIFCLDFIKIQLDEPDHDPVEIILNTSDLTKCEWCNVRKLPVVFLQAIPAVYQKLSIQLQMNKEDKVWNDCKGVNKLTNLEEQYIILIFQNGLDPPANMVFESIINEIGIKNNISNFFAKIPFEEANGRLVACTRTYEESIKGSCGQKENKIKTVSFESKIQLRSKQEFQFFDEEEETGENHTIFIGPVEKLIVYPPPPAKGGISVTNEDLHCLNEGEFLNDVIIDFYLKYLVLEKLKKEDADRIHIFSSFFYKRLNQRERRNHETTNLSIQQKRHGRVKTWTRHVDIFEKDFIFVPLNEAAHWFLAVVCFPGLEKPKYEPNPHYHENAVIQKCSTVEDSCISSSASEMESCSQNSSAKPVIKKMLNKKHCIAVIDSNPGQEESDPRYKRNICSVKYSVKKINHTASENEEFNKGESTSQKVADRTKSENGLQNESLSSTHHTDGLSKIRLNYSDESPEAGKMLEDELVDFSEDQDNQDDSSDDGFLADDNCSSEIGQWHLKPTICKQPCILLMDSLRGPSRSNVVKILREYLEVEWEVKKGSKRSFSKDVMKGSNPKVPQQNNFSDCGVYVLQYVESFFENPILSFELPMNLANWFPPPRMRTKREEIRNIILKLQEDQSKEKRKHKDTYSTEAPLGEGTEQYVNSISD
Type of test: functional.

A further test has as its target Exodeoxyribonuclease V (Escherichia coli (strain K12), UniProt P04993+P07648+P08394). In words: RecBCD inhibition via phage-restricted bacterial growth – absorbance, V66 E. coli, mutant T4 phage, counter-screen for AddAB inhibitor project, dose response (AID 492957). In kind it is functional, cell-based, Escherichia coli str. K-12 substr. MG1655. On the technique in general: A counterscreen serves to expose hits that act by an unwanted route or on another target.

The next test has as its target T6, Caspase-3 (Homo sapiens, UniProt P42574).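 Further: Dose-response selectivity test against caspase-3 for candidate inhibitors of sentrin-specific proteases (SENPs).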
T6 sequence (P42574 whole entry): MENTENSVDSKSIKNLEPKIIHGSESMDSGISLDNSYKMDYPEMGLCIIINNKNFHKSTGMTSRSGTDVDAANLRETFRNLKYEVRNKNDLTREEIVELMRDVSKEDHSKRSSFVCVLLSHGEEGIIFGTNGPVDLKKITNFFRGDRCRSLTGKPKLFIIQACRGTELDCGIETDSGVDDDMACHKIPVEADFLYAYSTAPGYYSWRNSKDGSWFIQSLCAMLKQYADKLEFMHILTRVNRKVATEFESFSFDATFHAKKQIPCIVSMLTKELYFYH
Type of test: functional.

The target of test [10] is Mitochondrial peptide methionine sulfoxide reductase (Bos taurus, UniProt P54149). In words: Absorbance-based biochemical high throughput dose response assay for activators of Methionine sulfoxide reductase A (MsrA). In kind it is functional.
Test [11] can be described thus: Counterscreen for AddAB inhibitors: absorbance-based bacterial cell-based high throughput dose response assay for inhibitors of bacterial viability. [Related pubchem assays (depositor defined):AID435030, AID449728, AID449731, AID488942, AID488955, AID488956]. In kind it is functional.
For test [12], the target named is T7, Sentrin-specific protease 7 (Homo sapiens, UniProt Q9BQF6).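 Further: Luminescence-based dose-response confirmation of ultra-high-throughput screening hits, measuring inhibition of SENP7.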
T7 sequence (Q9BQF6 whole entry): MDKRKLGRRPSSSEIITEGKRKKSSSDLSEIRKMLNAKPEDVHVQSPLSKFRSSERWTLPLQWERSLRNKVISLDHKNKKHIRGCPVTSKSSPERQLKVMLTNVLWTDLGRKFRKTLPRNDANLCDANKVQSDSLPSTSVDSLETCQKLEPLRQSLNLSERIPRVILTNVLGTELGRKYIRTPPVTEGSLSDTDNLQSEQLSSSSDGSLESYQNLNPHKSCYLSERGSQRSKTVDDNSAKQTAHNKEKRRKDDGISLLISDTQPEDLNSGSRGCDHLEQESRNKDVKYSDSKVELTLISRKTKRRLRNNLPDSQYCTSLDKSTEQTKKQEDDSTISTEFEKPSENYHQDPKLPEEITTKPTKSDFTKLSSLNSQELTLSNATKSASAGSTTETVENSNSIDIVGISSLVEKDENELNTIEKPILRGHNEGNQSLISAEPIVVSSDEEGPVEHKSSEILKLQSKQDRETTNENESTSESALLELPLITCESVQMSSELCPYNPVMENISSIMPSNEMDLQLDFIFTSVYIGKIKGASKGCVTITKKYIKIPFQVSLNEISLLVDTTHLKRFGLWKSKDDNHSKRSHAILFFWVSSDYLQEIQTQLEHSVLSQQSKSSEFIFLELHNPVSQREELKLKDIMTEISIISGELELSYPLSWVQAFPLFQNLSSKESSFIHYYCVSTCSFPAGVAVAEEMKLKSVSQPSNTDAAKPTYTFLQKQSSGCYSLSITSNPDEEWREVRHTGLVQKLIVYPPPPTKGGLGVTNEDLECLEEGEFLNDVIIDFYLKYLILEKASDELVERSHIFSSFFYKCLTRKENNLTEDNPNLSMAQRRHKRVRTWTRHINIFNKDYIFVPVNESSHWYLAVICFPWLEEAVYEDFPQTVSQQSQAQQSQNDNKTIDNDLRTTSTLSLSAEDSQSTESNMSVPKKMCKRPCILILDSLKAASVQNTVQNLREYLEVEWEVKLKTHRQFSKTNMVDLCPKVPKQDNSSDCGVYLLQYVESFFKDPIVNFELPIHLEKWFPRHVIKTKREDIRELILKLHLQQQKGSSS
Type of test: functional.

Test [13] can be described thus: CCR5-tropic HIV-1 fusion blockers – cell-based, CCR5-tropic Env, dose response (AID 2279). In kind it is functional.
Test [14] addresses G-protein coupled receptor 55 (Homo sapiens, UniProt Q9Y2T6). In words: blockers of GPR55 signalling, imaged – imaging, image-based, counter-screen for GPR35 antagonist project, SAR follow-up (AID 2397). In kind it is functional.
The target in test [15] is T8, Probable nicotinate-nucleotide adenylyltransferase (Staphylococcus aureus (strain N315), UniProt P65502). Type of test: functional, Staphylococcus aureus subsp. aureus N315. To be noted: read-out: IC50_Mean.
For test [16], the target named is T8, Probable nicotinate-nucleotide adenylyltransferase. Type of test: functional, Staphylococcus aureus subsp. aureus N315.
Test [17] in a line: viability of PTEN-deleted HCT116 cells – cell-based, HCT116 PTEN knockout, dose response (AID 1047).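 Further: HCT116 colon tumor cells with PTEN knocked out; cells exposed to compound for 60 hours before readout; potency for loss of cell viability measured by luminescence.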 Type of test: functional.
A short description of test [18]: viability of HCT116 lacking mutant beta-catenin – cell-based, human colon tumor, dose response (AID 1045).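 Further: HCT116 colon tumor cells with beta catenin knocked out; cells exposed to compound for 60 hours.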 Type of test: functional.
Test [19] is described as follows: restored growth of temperature-sensitive Burl-1 yeast – whole organism, S. cerevisiae, Burl-1 ts mutant, luminescence, counter-screen for SUMOylation pathway inhibitor project, dose response (AID 463199). In kind it is functional.
The target in another test is Genome polyprotein (Hepatitis C virus, UniProt Q2Q167). Description: disruption of hepatitis C core self-association – biochemical, TR-FRET, dose response (AID 2159).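 Further: blocks dimerization of HCV core protein measured by TR-FRET between tagged core106 pairs.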 Set-up: species or system Hepacivirus hominis. (In TR-FRET formats the signal depends on donor and acceptor labels being close together.)
The target of test [20] is Lysine-specific demethylase 4C (Homo sapiens, UniProt Q9H3R0). Description: inhibition of JMJD2C H3K9me3 demethylation – biochemical, DELFIA europium, cherry-picked samples, dose response (AID 488835). In kind it is functional.
Test [21] can be described thus: cells. In kind it is functional, cell-based.
The subject of another test is HEK293. In words: EBV LMP1 TES2 canonical NF-kB signalling blockers – cell-based, HEK293, luciferase, cherry-pick, dose response (AID 588343). To be noted: Homo sapiens. Type of test: functional.
The nature of test [22]: cells. In kind it is functional, cell-based. The source holds these as a separate data set.
In the next test the test system is INS1. In words: INS-1E survival protection against cytokine death – cell-based, luminescence, retest, dose response (AID 449756).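 Further: cell death triggered by IL-1 beta plus TNF-alpha plus IFN-gamma mixture; protective hits raise ATP signal compared with cytokine alone wells.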 In kind it is functional. The following applies: Rattus norvegicus.
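Wherever IC50 Mean is given: confirmatory dose-response retesting of NadD inhibitor hits first found in an ultra-high-throughput screen.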

T2 sequence (P41145 whole entry): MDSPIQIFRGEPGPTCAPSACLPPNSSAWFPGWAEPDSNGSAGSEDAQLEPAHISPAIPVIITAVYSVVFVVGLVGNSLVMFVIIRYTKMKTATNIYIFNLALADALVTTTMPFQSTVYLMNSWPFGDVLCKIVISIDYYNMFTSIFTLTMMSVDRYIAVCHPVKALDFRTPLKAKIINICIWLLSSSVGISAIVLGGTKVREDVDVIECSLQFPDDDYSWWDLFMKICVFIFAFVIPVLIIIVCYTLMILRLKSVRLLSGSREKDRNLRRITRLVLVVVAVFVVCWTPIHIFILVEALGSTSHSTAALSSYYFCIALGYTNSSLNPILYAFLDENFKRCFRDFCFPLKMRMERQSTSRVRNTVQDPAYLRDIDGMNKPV
T3 sequence (P35372 whole entry): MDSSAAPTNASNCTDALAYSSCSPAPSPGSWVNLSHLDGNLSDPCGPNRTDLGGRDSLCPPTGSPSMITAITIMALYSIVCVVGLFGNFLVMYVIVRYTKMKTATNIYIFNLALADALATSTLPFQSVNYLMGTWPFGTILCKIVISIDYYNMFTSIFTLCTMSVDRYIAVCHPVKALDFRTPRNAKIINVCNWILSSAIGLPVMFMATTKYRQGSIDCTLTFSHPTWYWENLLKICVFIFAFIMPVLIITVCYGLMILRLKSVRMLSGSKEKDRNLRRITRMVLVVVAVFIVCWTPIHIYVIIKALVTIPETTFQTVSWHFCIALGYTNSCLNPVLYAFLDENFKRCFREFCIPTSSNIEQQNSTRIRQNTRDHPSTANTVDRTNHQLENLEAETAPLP
T8 sequence (P65502 whole entry): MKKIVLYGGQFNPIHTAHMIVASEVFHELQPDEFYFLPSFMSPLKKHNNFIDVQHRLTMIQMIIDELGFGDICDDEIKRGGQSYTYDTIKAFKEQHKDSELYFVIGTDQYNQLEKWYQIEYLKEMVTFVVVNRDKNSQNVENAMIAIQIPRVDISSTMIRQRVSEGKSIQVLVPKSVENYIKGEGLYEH
T1 sequence (P41143 whole entry): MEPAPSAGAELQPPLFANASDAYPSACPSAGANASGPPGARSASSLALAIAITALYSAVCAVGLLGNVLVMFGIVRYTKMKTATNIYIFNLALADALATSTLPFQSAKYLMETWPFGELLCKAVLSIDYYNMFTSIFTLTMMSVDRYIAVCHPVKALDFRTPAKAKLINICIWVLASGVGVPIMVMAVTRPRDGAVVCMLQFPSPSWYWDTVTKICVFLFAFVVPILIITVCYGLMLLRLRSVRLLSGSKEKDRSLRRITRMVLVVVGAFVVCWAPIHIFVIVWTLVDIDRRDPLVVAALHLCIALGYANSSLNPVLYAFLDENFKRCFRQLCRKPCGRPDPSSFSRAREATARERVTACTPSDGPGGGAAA
G-protein coupled receptor 55, sequence (Q9Y2T6 whole entry): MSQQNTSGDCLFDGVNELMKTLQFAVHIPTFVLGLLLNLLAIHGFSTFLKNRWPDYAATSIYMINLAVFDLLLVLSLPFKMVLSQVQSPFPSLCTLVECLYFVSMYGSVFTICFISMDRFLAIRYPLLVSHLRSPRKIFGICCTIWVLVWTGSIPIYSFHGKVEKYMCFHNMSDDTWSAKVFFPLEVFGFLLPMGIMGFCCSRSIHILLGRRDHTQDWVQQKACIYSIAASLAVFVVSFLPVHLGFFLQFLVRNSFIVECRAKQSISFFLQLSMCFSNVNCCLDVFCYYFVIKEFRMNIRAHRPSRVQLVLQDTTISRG
Mitochondrial peptide methionine sulfoxide reductase, sequence (P54149 whole entry): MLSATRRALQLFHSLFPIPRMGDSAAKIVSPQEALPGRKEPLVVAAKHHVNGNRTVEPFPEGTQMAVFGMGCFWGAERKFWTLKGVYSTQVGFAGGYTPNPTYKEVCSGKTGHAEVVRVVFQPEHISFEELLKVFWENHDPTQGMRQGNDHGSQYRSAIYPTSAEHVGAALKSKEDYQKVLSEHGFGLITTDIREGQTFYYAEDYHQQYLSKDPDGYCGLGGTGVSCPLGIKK
Exodeoxyribonuclease V, sequence (P04993 whole entry): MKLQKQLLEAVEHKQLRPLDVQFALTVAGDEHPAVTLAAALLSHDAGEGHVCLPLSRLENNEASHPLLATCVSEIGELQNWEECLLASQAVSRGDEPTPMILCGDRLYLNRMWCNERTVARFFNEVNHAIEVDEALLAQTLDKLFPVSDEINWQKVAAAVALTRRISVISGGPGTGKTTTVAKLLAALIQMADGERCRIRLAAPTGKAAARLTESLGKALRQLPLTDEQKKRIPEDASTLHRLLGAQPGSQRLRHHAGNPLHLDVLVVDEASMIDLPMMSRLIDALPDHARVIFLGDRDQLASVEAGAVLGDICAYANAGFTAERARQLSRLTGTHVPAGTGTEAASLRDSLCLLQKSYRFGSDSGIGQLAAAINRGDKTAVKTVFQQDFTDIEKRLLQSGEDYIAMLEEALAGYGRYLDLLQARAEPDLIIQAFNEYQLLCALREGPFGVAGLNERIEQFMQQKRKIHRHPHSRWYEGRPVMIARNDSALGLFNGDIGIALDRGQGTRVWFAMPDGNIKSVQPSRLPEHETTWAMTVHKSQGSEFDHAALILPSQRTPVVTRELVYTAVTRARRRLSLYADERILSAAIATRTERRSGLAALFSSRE
Exodeoxyribonuclease V, sequence (P07648 whole entry): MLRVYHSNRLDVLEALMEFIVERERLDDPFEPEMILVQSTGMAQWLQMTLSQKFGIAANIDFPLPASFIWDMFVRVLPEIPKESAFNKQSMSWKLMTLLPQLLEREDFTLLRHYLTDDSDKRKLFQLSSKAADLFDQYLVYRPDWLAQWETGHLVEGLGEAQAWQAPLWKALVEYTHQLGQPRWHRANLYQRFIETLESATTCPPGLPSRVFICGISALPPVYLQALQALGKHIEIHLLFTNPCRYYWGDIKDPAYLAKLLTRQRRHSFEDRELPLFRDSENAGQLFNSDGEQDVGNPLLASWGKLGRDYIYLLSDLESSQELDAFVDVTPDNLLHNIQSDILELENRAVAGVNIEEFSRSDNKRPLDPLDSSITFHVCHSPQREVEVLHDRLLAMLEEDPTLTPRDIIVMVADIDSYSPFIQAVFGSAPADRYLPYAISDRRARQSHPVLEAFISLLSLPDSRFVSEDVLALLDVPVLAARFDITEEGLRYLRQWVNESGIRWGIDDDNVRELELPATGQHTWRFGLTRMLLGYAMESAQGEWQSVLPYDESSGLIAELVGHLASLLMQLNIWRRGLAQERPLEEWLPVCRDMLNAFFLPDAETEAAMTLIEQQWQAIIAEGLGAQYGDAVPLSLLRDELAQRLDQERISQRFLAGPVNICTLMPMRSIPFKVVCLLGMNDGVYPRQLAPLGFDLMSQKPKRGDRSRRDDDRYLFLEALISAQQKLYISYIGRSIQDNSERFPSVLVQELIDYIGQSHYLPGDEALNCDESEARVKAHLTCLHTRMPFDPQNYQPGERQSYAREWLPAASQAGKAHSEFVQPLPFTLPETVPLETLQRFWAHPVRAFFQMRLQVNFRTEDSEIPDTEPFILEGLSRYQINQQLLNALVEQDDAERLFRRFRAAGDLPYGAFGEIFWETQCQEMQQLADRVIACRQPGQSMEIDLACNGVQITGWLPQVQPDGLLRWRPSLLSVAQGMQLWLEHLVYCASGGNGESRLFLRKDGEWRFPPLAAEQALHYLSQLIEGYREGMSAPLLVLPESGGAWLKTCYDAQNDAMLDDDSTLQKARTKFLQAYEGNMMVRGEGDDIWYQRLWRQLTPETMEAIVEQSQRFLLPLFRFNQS
Exodeoxyribonuclease V, sequence (P08394 whole entry): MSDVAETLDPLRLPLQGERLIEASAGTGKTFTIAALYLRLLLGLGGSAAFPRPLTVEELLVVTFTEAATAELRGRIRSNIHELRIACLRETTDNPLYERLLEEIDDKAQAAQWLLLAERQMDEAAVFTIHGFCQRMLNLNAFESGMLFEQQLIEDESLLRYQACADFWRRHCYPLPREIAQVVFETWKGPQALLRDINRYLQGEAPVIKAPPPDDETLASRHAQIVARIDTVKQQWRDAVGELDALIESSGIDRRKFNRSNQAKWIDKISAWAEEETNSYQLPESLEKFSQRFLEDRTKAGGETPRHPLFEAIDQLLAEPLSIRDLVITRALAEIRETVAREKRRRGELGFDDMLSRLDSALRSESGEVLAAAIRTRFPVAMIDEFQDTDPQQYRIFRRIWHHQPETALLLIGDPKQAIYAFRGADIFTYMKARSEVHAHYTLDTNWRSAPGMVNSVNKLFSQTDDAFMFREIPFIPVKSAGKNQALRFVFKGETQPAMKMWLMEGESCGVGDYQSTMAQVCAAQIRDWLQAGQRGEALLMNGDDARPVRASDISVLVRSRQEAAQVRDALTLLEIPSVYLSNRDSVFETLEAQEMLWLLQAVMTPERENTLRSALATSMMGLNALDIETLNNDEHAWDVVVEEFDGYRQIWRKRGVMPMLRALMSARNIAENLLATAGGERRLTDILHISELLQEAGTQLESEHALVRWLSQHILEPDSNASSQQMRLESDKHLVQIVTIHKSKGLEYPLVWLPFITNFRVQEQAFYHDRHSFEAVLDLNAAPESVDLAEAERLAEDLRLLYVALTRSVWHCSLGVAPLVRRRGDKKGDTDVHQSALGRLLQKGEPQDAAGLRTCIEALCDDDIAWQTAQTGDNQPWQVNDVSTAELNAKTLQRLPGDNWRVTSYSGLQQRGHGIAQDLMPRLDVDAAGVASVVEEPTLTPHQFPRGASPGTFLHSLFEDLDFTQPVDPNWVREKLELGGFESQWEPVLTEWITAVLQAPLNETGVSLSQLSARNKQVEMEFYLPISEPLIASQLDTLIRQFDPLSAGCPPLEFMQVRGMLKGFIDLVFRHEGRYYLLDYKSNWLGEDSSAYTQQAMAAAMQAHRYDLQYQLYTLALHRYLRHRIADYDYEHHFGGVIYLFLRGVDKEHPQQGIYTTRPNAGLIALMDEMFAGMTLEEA
Genome polyprotein, sequence (Q2Q167 whole entry): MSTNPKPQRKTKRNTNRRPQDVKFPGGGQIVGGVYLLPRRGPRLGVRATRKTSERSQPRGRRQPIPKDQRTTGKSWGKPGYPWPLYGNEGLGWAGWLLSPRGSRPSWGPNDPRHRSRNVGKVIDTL

Usually EC50 stands for the concentration giving half of the maximal effect. Consider `CC(=O)c1ccc(S(=O)(=O)NCc2ccc(C(=O)N(C)CC(=O)Nc3cccc(F)c3)cc2)cc1`, for which the IC50 in [1] was > 32 µM (inactive); in test [4], > 32 µM (inactive); at Mu-type opioid receptor [5] it was > 32 µM (inactive); in [7] it was > 10 µM (inactive). The EC50 (in test [2]; in test [3]; on Mu-type opioid receptor [6]) was > 32 µM (inactive) throughout.

Turning to `O=C(COC(=O)c1ccc([N+](=O)[O-])s1)c1ccc[nH]1`, the IC50 in test [8] is 5.37 µM (active); in [9], 6.52 µM (active); at Exodeoxyribonuclease V, > 119 µM (inactive); on Caspase-3, 10.2 µM (active); in test [11], 104 µM (inactive); in test [12], 18.4 µM (active). In test [10], the EC50 was 15.8 µM (inactive).

`CCC(Sc1nc2ccsc2c(=O)n1Cc1ccc(C(=O)O)cc1)C(=O)Nc1ccc(C)c(Cl)c1` (configuration not stated): the IC50 in test [13] is 47.7 µM (active); in test [14], 14.9 µM (inactive); in [15] it was 38.6 µM (active); in test [16] it was 6.61 µM (active).

As a reminder, the AC50 is the concentration at which the activity in the assay is half-maximal. For `O=C(N/N=C/C(Br)=C/c1ccccc1)c1[nH]nc2c1CCC2`, the EC50 in test [17] and in test [18] was < 0.059 µM (active) in each case. For the same molecule, the AC50 in test [19] was 120 µM (active). Moreover, at Genome polyprotein, the IC50 was > 49.8 µM (not active).

For the molecule `COc1cccc(/C=N/Nc2nc3ccccc3[nH]2)c1O`, the figures for the half-maximal activity concentration (AC50) (in [20]; in the test with HEK293; with INS1) were 8.63 µM (active), 3.34 µM (active) and 2.22 µM (active), respectively. In addition, the results for the EC50 in “cells [21]” and in “cells [22]” were > 350 µM (not active) and 26.6 µM (active), respectively.

These data come from ChEMBL document CHEMBL1201862, “PubChem BioAssay data set” (2004).
